Data: PubChem BioAssay AID248 (DTP/NCI, 2004)
Toxic doses and inconclusive results are not listed. Cut-off read from the data, not from the text of the source: active = T/C of 150% or more; inactive = T/C below 125%.

Test system: L1210 leukemia ip in BDF1 mice, survival T/C
Test: NCI In Vivo Anticancer Drug Screen. Data for tumor model L1210 Leukemia (intraperitoneal) in B6D2F1 (BDF1) mice
Details: endpoint: mean survival time, higher = longer survival
In short: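 In this screen, tumor-bearing mice given compound are compared to those given vehicle, and their survival values are reported as a treated-to-control quotient.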

[1] = dose: 75.0 mg/kg/injection, schedule: Q01DX001 (ip), vehicle: saline
[2] = dose: 100.0 mg/kg/injection, schedule: Q01DX009 (ip), vehicle: saline
[3] = dose: 200.0 mg/kg/injection, schedule: Q01DX009 (ip), vehicle: saline
[4] = dose: 100.0 mg/kg/injection, schedule: Q04DX003 (ip), vehicle: saline
[5] = dose: 200.0 mg/kg/injection, schedule: Q04DX003 (ip), vehicle: saline
[6] = dose: 100.0 mg/kg/injection, schedule: Q01DX001 (ip), vehicle: saline
[7] = dose: 200.0 mg/kg/injection, schedule: Q01DX001 (ip), vehicle: saline
[8] = dose: 100.0 mg/kg/injection, schedule: Q01DX001 (ip), vehicle: carboxymethylcellulose (CMC)
[9] = dose: 100.0 mg/kg/injection, schedule: Q04DX003 (ip), vehicle: Klucel (hydroxypropylcellulose) (HPC)
[10] = dose: 200.0 mg/kg/injection, schedule: Q04DX003 (ip), vehicle: Klucel (hydroxypropylcellulose) (HPC)
[11] = dose: 400.0 mg/kg/injection, schedule: Q04DX003 (ip), vehicle: Klucel (hydroxypropylcellulose) (HPC)

Measured: T/C

C=C(C)CC(O)CCCCC (stereo unspecified)
inactive: dose: 100.0 mg/kg/injection, schedule: Q04DX002 (ip), vehicle: saline 98 % of control | dose: 200.0 mg/kg/injection, schedule: Q04DX002 (ip), vehicle: saline 102 % of control | dose: 400.0 mg/kg/injection, schedule: Q04DX002 (ip), vehicle: saline 98 % of control

O=C(Nc1ccc(OP(=O)(O)O)cc1)c1ccc(C(=O)Nc2ccc(OP(=O)(O)O)cc2)cc1
inactive: dose: 2.5 mg/kg/injection, schedule: Q01DX Z (ip), vehicle: water 96 % of control | dose: 5.0 mg/kg/injection, schedule: Q01DX Z (ip), vehicle: water 104 % of control | dose: 7.5 mg/kg/injection, schedule: Q01DX Z (ip), vehicle: water 93 % of control | dose: 10.0 mg/kg/injection, schedule: Q01DX Z (ip), vehicle: water 93 % of control | dose: 18.7 mg/kg/injection, schedule: Q01DX Z (ip), vehicle: water 104 % of control

COc1ccc(C(=O)Nc2ccccc2SC)cc1
inactive: dose: 100.0 mg/kg/injection, schedule: Q04DX002 (ip), vehicle: Klucel (hydroxypropylcellulose) (HPC) 99 % of control | dose: 200.0 mg/kg/injection, schedule: Q04DX002 (ip), vehicle: Klucel (hydroxypropylcellulose) (HPC) 96 % of control | dose: 400.0 mg/kg/injection, schedule: Q04DX002 (ip), vehicle: Klucel (hydroxypropylcellulose) (HPC) 102 % of control

CC(C(O)c1ccccc1)[n+]1ccccc1 (stereo unspecified)
inactive: [1] 102 % of control

COc1cccc(/C=C2/COC/C(=C\c3cccc(OC)c3OC)C2=O)c1OC
inactive: [2] 91 % of control | [3] 97 % of control

Nc1ccc(C(=O)Nc2ccc(Nc3ccncc3)cc2)c([N+](=O)[O-])c1
inactive: [2] 97 % of control | [4] 100 % of control | [3] 104 % of control | [5] 96 % of control | dose: 400.0 mg/kg/injection, schedule: Q01DX009 (ip), vehicle: saline 106 % of control | dose: 400.0 mg/kg/injection, schedule: Q04DX003 (ip), vehicle: saline 100 % of control

OCC1OC(n2ncc3nccnc32)C(O)C1O (stereo unspecified)
inactive: dose: 50.0 mg/kg/injection, schedule: Q01DX005 (ip), vehicle: other 105 % of control | dose: 100.0 mg/kg/injection, schedule: Q01DX005 (ip), vehicle: other 105 % of control | dose: 200.0 mg/kg/injection, schedule: Q01DX005 (ip), vehicle: other 91 % of control

CCC1([N+](=O)[O-])COP(=O)(OC(=O)c2ccco2)OC1 (stereo unspecified)
inactive: [6] 97 % of control | [7] 96 % of control | dose: 400.0 mg/kg/injection, schedule: Q01DX001 (ip), vehicle: saline 96 % of control

CC(=O)CC(=O)Nc1ccc(C(=O)c2ccccc2)cc1
inactive: dose: 37.5 mg/kg/injection, schedule: Q01DX009 (ip), vehicle: saline 98 % of control | dose: 75.0 mg/kg/injection, schedule: Q01DX001 (ip), vehicle: acetone 87 % of control | [1] 95 % of control | dose: 75.0 mg/kg/injection, schedule: Q01DX009 (ip), vehicle: saline 93 % of control | dose: 150.0 mg/kg/injection, schedule: Q01DX001 (ip), vehicle: saline 98 % of control | dose: 150.0 mg/kg/injection, schedule: Q01DX009 (ip), vehicle: saline 107 % of control | dose: 300.0 mg/kg/injection, schedule: Q01DX001 (ip), vehicle: acetone 98 % of control | dose: 300.0 mg/kg/injection, schedule: Q01DX001 (ip), vehicle: saline 90 % of control

O=C1C=CC(=O)c2cc3ccccc3cc21
inactive: [8] 102 % of control

CCCC1(C(=O)OCC)CCCC1=O (stereo unspecified)
inactive: [8] 95 % of control | dose: 200.0 mg/kg/injection, schedule: Q01DX001 (ip), vehicle: carboxymethylcellulose (CMC) 90 % of control | dose: 400.0 mg/kg/injection, schedule: Q01DX001 (ip), vehicle: carboxymethylcellulose (CMC) 92 % of control

O=C(O)CCC1(CCC(=O)O)OCCO1.[Ag]
inactive: dose: 9.38 mg/kg/injection, schedule: Q01DX001 (ip), vehicle: other 97 % of control | dose: 18.75 mg/kg/injection, schedule: Q01DX001 (ip), vehicle: other 97 % of control | dose: 37.5 mg/kg/injection, schedule: Q01DX001 (ip), vehicle: other 100 % of control

C=C1C(=O)N(C)CCC1C(CC)C(=O)OC (stereo unspecified)
inactive: dose: 25.0 mg/kg/injection, schedule: Q01DX001 (ip), vehicle: saline 101 % of control | dose: 25.0 mg/kg/injection, schedule: Q04DX003 (ip), vehicle: saline 95 % of control | dose: 25.0 mg/kg/injection, schedule: Q04DX003 (oral), vehicle: saline 107 % of control | dose: 50.0 mg/kg/injection, schedule: Q01DX001 (ip), vehicle: saline 88 % of control | dose: 50.0 mg/kg/injection, schedule: Q04DX003 (ip), vehicle: saline 93 % of control | dose: 50.0 mg/kg/injection, schedule: Q04DX003 (oral), vehicle: saline 109 % of control | [6] 98 % of control | [4] 93 % of control | dose: 100.0 mg/kg/injection, schedule: Q04DX003 (oral), vehicle: saline 98 % of control | [7] 93 % of control | [5] 95 % of control | dose: 200.0 mg/kg/injection, schedule: Q04DX003 (oral), vehicle: saline 94 % of control

CCC(C)c1ccc(O)c(CN(CCO)CCO)c1 (stereo unspecified)
inactive: [6] 105 % of control | [7] 101 % of control

O=c1c2ccccc2ccc2ccccc12
inactive: dose: 100.0 mg/kg/injection, schedule: Q01DX001 (ip), vehicle: Klucel (hydroxypropylcellulose) (HPC) 103 % of control | dose: 100.0 mg/kg/injection, schedule: Q01DX009 (ip), vehicle: Klucel (hydroxypropylcellulose) (HPC) 97 % of control | [9] 100 % of control | dose: 200.0 mg/kg/injection, schedule: Q01DX001 (ip), vehicle: Klucel (hydroxypropylcellulose) (HPC) 93 % of control | dose: 200.0 mg/kg/injection, schedule: Q01DX009 (ip), vehicle: Klucel (hydroxypropylcellulose) (HPC) 102 % of control | [10] 103 % of control | dose: 400.0 mg/kg/injection, schedule: Q01DX001 (ip), vehicle: Klucel (hydroxypropylcellulose) (HPC) 103 % of control | dose: 400.0 mg/kg/injection, schedule: Q01DX009 (ip), vehicle: Klucel (hydroxypropylcellulose) (HPC) 100 % of control | [11] 105 % of control

Cc1nc(-c2ccccc2)[nH]c(=O)c1CC(O)c1ccccc1 (stereo unspecified)
inactive: [9] 86 % of control | [10] 92 % of control | [11] 87 % of control

CCN(CC)CCCCNc1ccc(NCCCCN(CC)CC)c2c1C(=O)c1ccccc1C2=O
inactive: dose: 25.0 mg/kg/injection, schedule: Q04DX002 (ip), vehicle: alcohol 106 % of control | dose: 50.0 mg/kg/injection, schedule: Q04DX002 (ip), vehicle: alcohol 95 % of control | dose: 100.0 mg/kg/injection, schedule: Q04DX002 (ip), vehicle: alcohol 92 % of control

Cc1ccc(C(=O)C=Nc2ccc(S(N)(=O)=O)cc2)cc1
inactive: dose: 12.5 mg/kg/injection, schedule: Q04DX002 (ip), vehicle: Klucel (hydroxypropylcellulose) (HPC) 94 % of control | dose: 25.0 mg/kg/injection, schedule: Q04DX002 (ip), vehicle: Klucel (hydroxypropylcellulose) (HPC) 115 % of control | dose: 50.0 mg/kg/injection, schedule: Q04DX002 (ip), vehicle: Klucel (hydroxypropylcellulose) (HPC) 97 % of control

O=S1(=O)CC(c2ccc(F)cc2)Nc2ccccc21 (stereo unspecified)
inactive: [9] 102 % of control | [10] 102 % of control | [11] 97 % of control
